Data reported in ChEMBL document CHEMBL1201862, “PubChem BioAssay data set” (2004).
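Grown in 96-well plates, cells were treated for 48 hours with each compound at five concentrations. Insufficient inhibition: endpoint recorded as highest concentration tested. The concentration for 50% growth inhibition is given as GI50.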 Calls of active or inactive are those of the source. Cut-off read from the data, not from the text of the source: active = GI50 up to about 1.1 µM and inactive = higher.

Columns and labels:
Test in all cases: inhibition of tumour cell growth, NCI panel, 48 h
[1] = system: A549
[2] = system: DLD-1
[3] = system: DMS-114
[4] = system: DMS-273
[5] = system: HL-60
[6] = system: HOP-92
[7] = system: M19-MEL
[8] = system: MCF7
[9] = system: NCI-H23
[10] = system: NCI-H460
[11] = system: NCI-H522
[12] = system: SNB-78
[13] = system: SW-620
[14] = system: UACC-257

Measured: GI50

COC(=O)C1C(O)C(C)C(O)OC1C(C)C(O)C(C)/C=C\C=C(/C)C(=O)Nc1c(C)c(OC(C)=O)c2c(c1O)C(=O)C(C)=C1OCOC(/C(C)=C/C(C)=O)=C12 (centres undefined)
inactive: [1] 15.1 µM | [2] 8.93 µM | [3] 10.1 µM | [4] 13.3 µM | [5] 3.1 µM | [6] 12.8 µM | [7] 13.3 µM | [8] 13.9 µM | [9] 14.2 µM | [10] 13.7 µM | [11] 2.25 µM | [12] 13.2 µM | [13] 9.53 µM | [14] 12.5 µM
